Earlier results, collected in patent US20130316926A1, “METHOD FOR THE MONITORING OF SMOKING CESSATION COMPLIANCE AND RECOVERY, THERAPEUTIC INTERVENTION, AND RISK MANAGEMENT” (Health Diagnostic Laboratory, Inc., priority 2012, published 2013).
Read-outs that look alike come from different tables or passages of the source.

Key:
[1] = for t½: b55, cotinine value is an average
[2] = for urinary concentration: tobacco user, regardless of nicotine replacement therapy

CN1C(=O)[C@H](O)C[C@H]1c1cccnc1 (relative stereo) [trans-3-hydroxycotinine]
half-life [1]: 10 h | Concentration of Urinary: Non-tobacco user with no passive exposure [2]: <50 ng/mL | Concentration of Urinary: Non-tobacco user with Passive exposure [2]: <50 ng/mL | Concentration of Urinary: Tobacco user after 2 weeks' abstinence [2]: <120 ng/mL | concentration in urine of tobacco users [2]: 3,000-25,000 ng/mL

c1cncc([C@@H]2CCCCN2)c1 [Anabasine]
Concentration of Urinary: Non-tobacco user with no passive exposure [2]: <2.0 ng/mL | Concentration of Urinary: Non-tobacco user with Passive exposure [2]: <2.0 ng/mL | Concentration of Urinary: Tobacco user after 2 weeks' abstinence [2]: <2.0 ng/mL | urinary concentration [2]: > 10 ng/mL

CN1C(=O)CC[C@H]1c1cccnc1 [Cotinine]
half-life [1]: 15 h | half-life ([1]; b40, Benowitz 1986): about 20 hrs | t½ [1]: 16 h | Concentration of Urinary: Non-tobacco user with no passive exposure [2]: <5.0 ng/mL | Concentration of Urinary: Non-tobacco user with Passive exposure [2]: <20 ng/mL | Concentration of Urinary: Tobacco user after 2 weeks' abstinence [2]: <50 ng/mL | concentration in urine of tobacco users [2]: 1,000-8,000 ng/mL

CN1CCCC1c1cccnc1 (centres unmarked) [Nicotine]
half-life [1]: 2 h | time to reach the central nervous system ([1]; after tobacco smoke inhalation): ≤ 20 s | t½ [1]: 2 h | fraction of circulating nicotine metabolized to cotinine ([1]; by cytochrome P450 and aldehyde oxidase): 70% | distribution half-life ([1]; in vivo): 8 min | elimination half-life ([1]; in vivo): 2 h | nicotine leaving the liver in metabolite forms ([1]; on average): 70% | nicotine that enters the liver and exits unchanged ([1]; on average): 30% | Concentration of Urinary: Non-tobacco user with no passive exposure [2]: <2.0 ng/mL | Concentration of Urinary: Non-tobacco user with Passive exposure [2]: <20 ng/mL | Concentration of Urinary: Tobacco user after 2 weeks' abstinence [2]: <30 ng/mL | concentration in urine of tobacco users [2]: 1,000-5,000 ng/mL

c1cncc([C@@H]2CCCN2)c1 [Nornicotine]
Concentration of Urinary: Non-tobacco user with no passive exposure [2]: <2.0 ng/mL | Concentration of Urinary: Non-tobacco user with Passive exposure [2]: <2.0 ng/mL | Concentration of Urinary: Tobacco user after 2 weeks' abstinence [2]: <2.0 ng/mL | urinary concentration [2]: > 30 ng/mL
